Test results taken from patent US6989377B2, “Treating vitamin D responsive diseases” (priority 1999, dated 2006).
Marks after values point to notes of the source that are not given here.

Experiments:
Type in all cases: in vivo, mouse
[1] = system: DSS-induced colitis in 129X1/SvJ male mice; experiment: Treatment at the first signs of DSS-induced colitis in 129X1/SvJ mice; conditions: 50 ng/d from day 4 of 1% DSS
Text: The 129×1/SvJ strain is genetically similar to the 129/Ola strain and to the 129/SvPas strain, which is less susceptible to DSS-induced colitis than C3H/HeJ.

[2] = system: DS-induced colitis in C3H/HeJ male mice; experiment: Calcitriol prevention of DS-induced colitis
Description: Fecal hemoglobin was analyzed in the mice to determine bleeding from a breached intestinal barrier. […] Co., Needham Heights, Mass.), the supernatants were decanted into fresh tubes and stored frozen at -20° C. Hemoglobin in the supernatants was analyzed by a method adapted from Saitoh et al., Digestion, 56:67-75, 1995, and Liem et al., Anal. Biochem., 98:388-393, 1979, with rat hemoglobin as standard (Sigma-Aldrich). The supernatants were diluted 1:25 in TBS. […] The reaction was stopped with 100 μL of 2 M phosphoric acid, and the absorbance at 450 nm was measured with an MRX Revelation Microplate Reader (DYNEX Technologies). […] The mice were euthanized with an i.p. injection of pentobarbital. […] The fixed tissue was embedded in paraffin, sectioned at 6 μm, stained with hematoxylin and eosin, and examined by light microscopy. Scoring was conducted by a veterinary pathologist in blinded fashion. […] Clin. Invest., 98:1010-1020, 1996. The scores were summed to provide a total colitis score for each mouse. […] In particular, age-matched C3H/HeJ male mice were fed a synthetic diet (see Example 6) with or without calcitriol or prednisolone for one week. […] The mice were weighed every 3-4 days thereafter. […] Serum and colon tissue were collected on day 28. Most assays were performed as described in Example 6, and the terminal serum calcium assay was performed as described below. […] The serum was decanted and stored frozen at -20° C. The samples, standards, and buffer blanks (2 μL each) were aliquoted into duplicate wells of a 96-well plate. Calcium reagent working solution (0.25 mL), prepared according to the manufacturer's directions (Sigma Diagnostics, St. Louis, Mo.), was added to each well, and the absorbance at 570 nm was measured.

[3] = system: DS-induced colitis in C3H/HeJ male mice; experiment: Calcitriol prevention of DS-induced colitis; conditions: 50 ng/day in diet from day −7; 1% DS days 0 to 5; terminated day 27
male C3H/HeJ mice = experiment: DS-induced colitis model in mice (weight, mortality, fecal hemoglobin, colon histopathology); conditions: for Colon Histopathology (sum): total colitis score 0 to 16
Text: This Example describes the generation of a mouse model for dextran sulfate (DS) induced colitis. This DS-induced colitis model was adapted from Okayasu et al. (1990) for use with a synthetic diet. In this Example, male C3H/HeJ mice were used, as these mice are highly susceptible to DS-induced colitis. Initially, mice were given 3.5% DS w/v in acidified water for 5 days, followed by acidified water without DS, and continuously fed a synthetic diet (synthetic diet described in Smith and Hayes, PNAS, USA, 84:5878-5882, 1987). […] These mice shunned the water containing DS, and met their hydration needs by consuming the synthetic diet (which is approximately 60% water by weight). A second group of mice were given 3.5% DS w/v in acidified water for 5 days, followed by acidified water without DS, and continuously fed laboratory chow (Purina mouse chow #5008) as described in Mahler et al., Gastrointest, Liver Physiol., 37:G544-G551 (1996). These mice, consuming an average of 0.57 g DS/mouse, lost weight (controls 26.1±0.7 g; DS group 22.8±0.3 g), and had hemoglobin (Hg) in the stool (controls 0±0 mg Hg/g stool; DS group 11.4 mg Hg/g stool).
To adapt the DS-induced model for use with the synthetic diet (see Smith and Hayes, 1987), a third group of mice were given graded amounts of DS in acidified water and a synthetic diet for 5 days, followed by acidified water and the synthetic diet without DS. These mice were weighed twice weekly and subjected to various other assays, including: fecal hemoglobin analysis, and histopathologic analysis. The results are presented below in Tables 2 and 3.
Fecal hemoglobin was analyzed in the mice to determine bleeding from a breached intestinal barrier. Fresh stool samples were collected from individual mice, dried overnight, weighed, and suspended in 0.5 mL of TRIS-buffered saline (TBS; 25 mM TRIS, 0.15 M NaCl, pH 7.6). The stool samples were centrifuged (10,000×g for 10 min) at room temperature in a Micromax centrifuge (International Equip. Co., Needham Heights, Mass.), the supernatants were decanted into fresh tubes and stored frozen at −20° C. Hemoglobin in the supernatants was analyzed by a method adapted from Saitoh et al., Digestion, 56:67-75, 1995, and Liem et al., Anal. Biochem., 98:388-393, 1979, with rat hemoglobin as standard (Sigma-Aldrich). The supernatants were diluted 1:25 in TBS. The assay was done in round-bottom, polystyrene, 96 well microtiterplates (#3555, DYNEX Technologies, Chantily, Va.). The samples, standards, and buffer blanks (20 μL each) were incubated in duplicate for 10 min with 100 μL of a substrate solution made with 9 volumes 3,3′5,5′-tetramethylbenzidine dihydrochloride peroxide solution (Turbo TMB-ELISA, Pierce Chemical Co., Rockford, Ill.) and 1 volume of hydrogen peroxide solution (Stable Peroxide Substrate Buffer, Pierce Chemical Co.). The reaction was stopped with 100 μL of 2 M phosphoric acid, and the absorbance at 450 nm was measured with an MRX Revelation Microplate Reader (DYNEX Technologies). The fecal hemoglobin assay working range was 1 to 100 μg/mL sample.
The mice were euthanized with an i.p. injection of pentobarbital. The cecal and rectal GI tract segments were collected, cut longitudinally, flushed with 10% neutral-buffered formalin, arranged in a spiral pattern in a cassette, and fixed in formalin. The fixed tissue was embedded in paraffin, sectioned at 6 μm, stained with hematoxylin and eosin, and examined by light microscopy. Scoring was conducted by a veterinary pathologist in blinded fashion. Each colon segment (proximal, medial, and distal colon, and rectum) was given a score from 0 to 4, based on the criteria described by Berg et al., J. Clin. Invest., 98:1010-1020, 1996. The scores were summed to provide a total colitis score for each mouse. The total colitis score could range from 0 (no pathology in any segment) to 16 (grade 4 lesions in all colon segments).

[4] = 1% DS in drinking water and synthetic diet, days 0 to 5
[5] = 1.5% DS in drinking water and synthetic diet, days 0 to 5
[6] = 2.0% DS in drinking water and synthetic diet, days 0 to 5
[7] = 3.0% DS in drinking water, laboratory chow

## C[C@]12C=CC(=O)C=C1CC[C@@H]1[C@@H]2[C@@H](O)C[C@@]2(C)[C@H]1CC[C@]2(O)C(=O)CO [Prednisolone, prednisolone]
[1]
  Colon Histopathology, Distal colon: 2.0 ± 0.3
  Colon Histopathology, Middle colon: 0.2 ± 0.3
  Colon Histopathology, Rectum + anus: 0.8 ± 1.1
  Colon histopathology, Proximal colon: 0.7 ± 0.4
  Colon histopathology, Sum: 3.7 ± 1.3
[1]; 1 cycle, terminated 21 days later
  Peak fecal hemoglobin: 0.4 ± 0.6 mg/g
[1]; terminated 21 days later
  Terminal Serum Ca: 8.3 ± 1.3 mg/dL
  Terminal weight: 26.5 ± 02.0 g
[2]; 50 ng/day in diet from day −7, 1% DS days 0 to 5
  Peak Hg in Stool: 12.3 ± 10.0 mg/g
[2]; 50 ng/day in diet from day −7, 1% DS days 0 to 5, terminated day 27
  Terminal serum Ca++: 10.5 ± 1.2 mg/dL
[2]; 50 ng/day, 1% DS, score 0 to 4
  Colon Histopathology, Distal colon: 1.1 ± 0.4
  Colon histopathology, Medial colon: 0.3 ± 0.5
  Colon histopathology, Proximal colon: 1.0 ± 0
  Colon histopathology, Rectum: 2.9 ± 1.1
[2]; 50 ng/day, 1% DS, total score 0 to 16
  Colon histopathology, Sum: 5.3 ± 1.4
[3]
  Terminal weight: 29.4 ± 1.4 g

## dextran sulfate [DS]
Male C3H/HeJ mice; 1% DS in acidified drinking water and synthetic diet, days 0 to 5
  Weight change (%, day 0-11): 2.1 ± 0.9%
Male C3H/HeJ mice; [4]
  Mortality (%): 0%
  Peak Hg in Stool: 1.8 mg/g
Male C3H/HeJ mice; 1% DS in drinking water and synthetic diet
  Colon Histopathology (sum): 6.3 ± 3.5
Male C3H/HeJ mice; [5]
  Mortality (%): 66%
  Peak Hg in Stool: 16.7 mg/g
  Weight change (%, day 0-11): −12.4 ± 0.7%
Male C3H/HeJ mice; 1.5% DS in drinking water and synthetic diet
  Colon Histopathology (sum): 6.5
Male C3H/HeJ mice; [6]
  Mortality (%): 100%
  Peak Hg in Stool: 31.7 mg/g
Male C3H/HeJ mice; 2.0% DS in drinking water and synthetic diet, weight change day 0 to 6, when mortality reached 100%
  Weight change (%, day 0-11): −17.5 ± 0.2^b %
Male C3H/HeJ mice; [7]
  Mortality (%): 0%
  Peak Hg in Stool: 11.4 mg/g
  Weight change (%, day 0-11): −5.4%
  Colon Histopathology (sum): 9.5 ± 0.9
Male C3H/HeJ mice; 3.5% DS w/v in acidified water for 5 days, laboratory chow
  Hemoglobin (Hg) in the stool: 11.4 mg Hg/g stool
Male C3H/HeJ mice; 3.5% DS w/v in acidified water for 5 days, laboratory chow, controls 26.1±0.7 g
  Body weight: 22.8 ± 0.3 g
Male C3H/HeJ mice; 3.5% DS w/v in acidified water for 5 days, synthetic diet (mice shunned the DS water)
  Signs of colitis (diarrhea, blood in the stool, weight loss): no signs of colitis
